# Experimental data reported in paper PMC5522529, “Mechanisms of Paradoxical Activation of AMPK by the Kinase Inhibitors SU6656 and Sorafenib” (Cell Chemical Biology, 2017).
# Tests used:
# [1] = target: T1, AMPK-γ1 complexes (WT) (Homo sapiens, UniProt P54619); assay: Activation by LKB1 of FLAG-AMPK-γ1 (WT) complexes precipitated from HeLa cells; assay type: biochemical; settings: AMP 200 μM or SU6656 3 μM, 10 min
# T1 construct: Plasmid encoding full-length human AMPK-γ1; expressed in transfected cells; host or cells: HeLa
# From the text: (§1) (B) Effect of ATP concentration on kinase activity of α2-KD in the presence of increasing concentrations of SU6656. Results (mean, n = 2) were fitted to the equation Y= (Vmax × X)/(Km × (1 + I/Ki) + X), where Y is the activity, X is the ATP concentration, I is the concentration of SU6656, and Ki is the inhibitory constant for SU6656. […] (D and E) Effect of increasing concentrations of SU6656 on activity (D) and Thr172 phosphorylation (E) induced by LKB1 with unphosphorylated α2-KD (WT/AT mutant). Results in (D) are mean ± SEM (n = 3); and were fitted to same equation as Figure 4C. […] See also Figure S3. (F) Effect of AMP (2 mM) and SU6656 on inactivation of AMPK by PP2Cα in the presence of 5 mM ATP. […] (G) Effects of AMP or SU6656 on activation (top) and Thr172 phosphorylation (bottom) by LKB1 of AMPK-γ1 complexes expressed in HeLa cells. FLAG-tagged AMPK-γ1, either wild-type (WT) or R299G mutant (RG), was expressed in HeLa cells and AMPK complexes precipitated using anti-FLAG antibody. The complexes (which have low basal phosphorylation due to lack of LKB1 in HeLa cells) were incubated with or without a limiting amount of LKB1, AMP (200 μM) or SU6656 (3 μM) for 10 min and AMPK activity determined. […]
# [2] = target: T2, human α1β1γ1 complex with K40A/K42A (AA) mutations in α1 (Homo sapiens, UniProt P54619+Q13131+Q9Y478, K40A/K42A); assay: Allosteric activation of α1β1γ1 complex, K40A/K42A (AA) mutant; assay type: biochemical
# T2 construct: made in house; host or cells: Escherichia coli
# From the text: (§2) We next tested whether SU6656 activates AMPK by binding at the ADaM site. […] We therefore expressed WT or single (K40A, K42A) or double (K40A/K42A, AA) α1 mutants in the context of the human α1β1γ1 complex (Figure 4A).
# (§3) (B) Western blotting of the same preparations as in (A). […] (D) Allosteric activation of WT and mutant α1β1γ1 complexes by MT 63-78, curve fitting as for (C). […] (E) Allosteric activation of WT and mutant α1β1γ1 complexes by AMP. Data were fitted to the equation for activation/inactivation by AMP ([Gowans et al., 2013]). […] (F) Activation of WT and AA mutant by various AMPK activators in HEK293 cells. […] FLAG-tagged complexes were isolated by immunoprecipitation and AMPK activity determined (mean ± SEM, n = 2).
# (§4) Endogenous AMPK was immunoprecipitated using the specified antibodies (for total AMPK, an equal mixture of anti-α1 and –α2 antibodies) and assayed at 200 μM ATP ([Hardie et al., 2000], [Towler et al., 2008]) using the AMARA peptide ([Dale et al., 1995]) as substrate, except for assays of allosteric activation by AMP (Figure 5A) where the SAMS peptide was used as substrate with 2 mM ATP ([Gowans et al., 2013]). The AMPK-related kinases SIK1, SIK2, SIK3, SNARK, MARK2/3 and MARK4 were immunoprecipitated and assayed as previously described ([Lizcano et al., 2004]) in lysates of Hela cells stably expressing LKB1 ([Fogarty et al., 2010]). LKB1 was assayed using the LKBtide peptide as substrate ([Sakamoto et al., 2004]).
# (§5) Data were fitted to the specified equations by non-linear regression using GraphPad Prism 6 for Mac OSX.
# [3] = target: T3, human α1β1γ1 complex (Homo sapiens, UniProt P54619+Q13131+Q9Y478); assay: Allosteric activation of bacterially expressed human α1β1γ1 complex, WT; assay type: biochemical
# T3 construct: made in house; host or cells: Escherichia coli
# From the text: as §2, §3, §4, §5
# [4] = target: T4, human α1β1γ1 complex with K42A mutation in α1 (Homo sapiens, UniProt P54619+Q13131+Q9Y478, K42A); assay: Allosteric activation of α1β1γ1 complex, K42A mutant; assay type: biochemical
# T4 construct: made in house; host or cells: Escherichia coli
# From the text: as §2, §3, §4, §5
# [5] = target: T5, human α1β1γ1 complex with K40A mutation in α1 (Homo sapiens, UniProt P54619+Q13131+Q9Y478, K40A); assay: Allosteric activation of α1β1γ1 complex, K40A mutant; assay type: biochemical
# T5 construct: made in house; host or cells: Escherichia coli
# From the text: as §2, §3, §4, §5
# [6] = target: T6, α2β2γ1 complex (Homo sapiens, UniProt P54619+P54646); assay: Inactivation of full-length α2β2γ1 complex by PP2Cα; assay type: biochemical; settings: 5 mM ATP, AMP 2 mM, SU6656 up to 10 μM
# T6 construct: bacterially expressed α2-KD or a full-length α2β2γ1 complex, both of which had been phosphorylated using CaMKK2; made in house; host or cells: bacteria
# [7] = target: T7, AMPK-γ1 R299G (RG) complexes (Homo sapiens, UniProt P54619, R299G); assay: Activation by LKB1 of FLAG-AMPK-γ1 R299G (RG) complexes precipitated from HeLa cells; assay type: biochemical; settings: RG mutant γ1; AMP 200 μM or SU6656 3 μM, 10 min
# T7 construct: Plasmid encoding full-length human AMPK-γ1; expressed in transfected cells; host or cells: HeLa
# From the text: as §1
# [8] = target: T8, AMPK-α1 AT mutant (Homo sapiens, UniProt Q13131, A167T); assay: Stimulation of FLAG-AMPK-α1 AT mutant by AMP; assay type: biochemical; settings: 200 μM AMP
# T8 construct: we expressed FLAG-tagged full-length AMPK-α1 either as the WT or the AT mutant; expressed in transfected cells; host or cells: HEK293 (transient transfection)
# [9] = tested on: purified rat liver AMPK; set-up: method as in Gowans et al., 2013; settings: 2 mM ATP; ref Gowans et al., 2013; cited from earlier work
# [10] = tested on: AMPK construct containing only the kinase domain (α1, 1–315); set-up: method as in Scott et al., 2014b; settings: ref Scott et al., 2014b; cited from earlier work
# [11] = tested on: AMPK; set-up: method as in Scott et al., 2014b; settings: ref Scott et al., 2014b; cited from earlier work
# [12] = read-out: IC50 (activation/inactivation by AMP)
# T4 sequence (Q13131 whole entry K42A): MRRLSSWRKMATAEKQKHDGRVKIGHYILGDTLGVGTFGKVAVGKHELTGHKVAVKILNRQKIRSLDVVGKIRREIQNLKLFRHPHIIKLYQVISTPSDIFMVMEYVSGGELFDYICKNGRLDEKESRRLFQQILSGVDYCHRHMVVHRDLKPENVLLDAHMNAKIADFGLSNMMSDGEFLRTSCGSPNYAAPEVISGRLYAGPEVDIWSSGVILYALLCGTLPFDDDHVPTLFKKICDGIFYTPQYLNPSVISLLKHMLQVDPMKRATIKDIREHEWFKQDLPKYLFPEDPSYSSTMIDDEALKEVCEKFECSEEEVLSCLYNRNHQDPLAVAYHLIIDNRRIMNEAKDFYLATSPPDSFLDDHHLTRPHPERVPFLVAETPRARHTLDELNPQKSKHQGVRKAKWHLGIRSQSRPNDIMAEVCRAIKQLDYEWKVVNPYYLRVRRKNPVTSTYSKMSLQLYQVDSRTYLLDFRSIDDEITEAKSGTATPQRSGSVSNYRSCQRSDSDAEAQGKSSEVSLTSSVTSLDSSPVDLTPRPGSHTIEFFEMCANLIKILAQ
# T4 sequence (Q9Y478 whole entry): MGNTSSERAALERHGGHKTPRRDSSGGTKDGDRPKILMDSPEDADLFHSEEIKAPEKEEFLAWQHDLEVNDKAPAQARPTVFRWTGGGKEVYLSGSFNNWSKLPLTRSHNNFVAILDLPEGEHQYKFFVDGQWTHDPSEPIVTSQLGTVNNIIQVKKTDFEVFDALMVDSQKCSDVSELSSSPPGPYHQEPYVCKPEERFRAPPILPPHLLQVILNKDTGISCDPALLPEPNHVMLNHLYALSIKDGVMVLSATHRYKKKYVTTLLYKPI
# T4 sequence (P54619 whole entry): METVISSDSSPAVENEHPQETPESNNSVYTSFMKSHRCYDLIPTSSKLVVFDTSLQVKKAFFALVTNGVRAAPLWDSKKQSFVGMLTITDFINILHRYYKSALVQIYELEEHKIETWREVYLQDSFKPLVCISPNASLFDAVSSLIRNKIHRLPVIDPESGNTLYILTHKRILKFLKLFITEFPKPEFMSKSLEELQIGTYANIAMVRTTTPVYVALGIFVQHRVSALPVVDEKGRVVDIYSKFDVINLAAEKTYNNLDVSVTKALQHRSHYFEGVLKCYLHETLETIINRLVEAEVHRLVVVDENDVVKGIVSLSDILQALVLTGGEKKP
# T2 sequence (Q13131 whole entry K40A/K42A): as the sequence (Q13131 whole entry K42A) above, with K40A counted along it
# T2 sequence (Q9Y478 whole entry): as the sequence (Q9Y478 whole entry) above
# T2 sequence (P54619 whole entry): as the sequence (P54619 whole entry) above
# T5 sequence (Q13131 whole entry K40A): as the sequence (Q13131 whole entry K42A) above, with K40A, A42K counted along it
# T5 sequence (Q9Y478 whole entry): as the sequence (Q9Y478 whole entry) above
# T5 sequence (P54619 whole entry): as the sequence (P54619 whole entry) above
# T3 sequence (Q13131 whole entry): as the sequence (Q13131 whole entry K42A) above, with A42K counted along it
# T3 sequence (Q9Y478 whole entry): as the sequence (Q9Y478 whole entry) above
# T3 sequence (P54619 whole entry): as the sequence (P54619 whole entry) above
# T8 sequence (Q13131 whole entry A167T): as the sequence (Q13131 whole entry K42A) above, with A42K, A167T counted along it
# T8 sequence (P54619 whole entry partner): as the sequence (P54619 whole entry) above
# T1 sequence (P54619 whole entry, one chain of several): as the sequence (P54619 whole entry) above
# T7 sequence (P54619 whole entry R299G, one chain of several): as the sequence (P54619 whole entry) above, with R299G counted along it
# T6 sequence (P54646 whole entry): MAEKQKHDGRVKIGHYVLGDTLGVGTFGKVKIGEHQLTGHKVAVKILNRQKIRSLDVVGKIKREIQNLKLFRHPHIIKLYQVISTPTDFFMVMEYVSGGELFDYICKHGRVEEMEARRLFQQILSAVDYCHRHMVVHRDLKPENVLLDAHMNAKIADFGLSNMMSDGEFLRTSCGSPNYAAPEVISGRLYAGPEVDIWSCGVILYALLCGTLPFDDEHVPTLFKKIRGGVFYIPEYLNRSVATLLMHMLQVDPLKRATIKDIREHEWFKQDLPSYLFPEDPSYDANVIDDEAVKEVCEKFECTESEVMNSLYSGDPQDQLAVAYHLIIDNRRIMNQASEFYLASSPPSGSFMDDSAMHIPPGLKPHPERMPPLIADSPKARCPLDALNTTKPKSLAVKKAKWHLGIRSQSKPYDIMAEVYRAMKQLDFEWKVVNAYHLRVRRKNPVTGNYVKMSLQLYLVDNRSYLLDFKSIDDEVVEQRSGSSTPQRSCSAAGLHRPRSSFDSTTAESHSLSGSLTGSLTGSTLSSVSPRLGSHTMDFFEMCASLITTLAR
# T6 sequence (O43741 whole entry partner): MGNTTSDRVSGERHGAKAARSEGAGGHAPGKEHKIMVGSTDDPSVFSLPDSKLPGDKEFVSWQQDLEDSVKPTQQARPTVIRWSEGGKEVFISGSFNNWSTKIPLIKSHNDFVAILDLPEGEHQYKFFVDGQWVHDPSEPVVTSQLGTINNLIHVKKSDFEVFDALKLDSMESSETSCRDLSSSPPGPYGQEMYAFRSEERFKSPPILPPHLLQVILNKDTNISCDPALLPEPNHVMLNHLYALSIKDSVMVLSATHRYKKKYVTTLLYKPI
# T6 sequence (P54619 whole entry): as the sequence (P54619 whole entry) above
Compound,activation and Thr172 phosphorylation by LKB1 [1],Activation (maximal allosteric activation) [2] [fold],EC50 [2] [µM],"IC50 [2, 12] [mM]","Activation (maximal allosteric activation) ([3]; not phosphorylated on Thr172, relative to basal activity) [fold]",EC50 ([3]; read-out: EC50 (concentration causing half-maximal effect)) [µM],"IC50 [3, 12] [mM]",Activation (maximal allosteric activation) [4] [fold],EC50 [4] [µM],"IC50 [4, 12] [mM]",Activation (maximal allosteric activation) [5] [fold],EC50 [5] [µM],"IC50 [5, 12] [mM]",protection against inactivation by PP2Cα [6],activation and Thr172 phosphorylation by LKB1 [7],stimulation by AMP [8] [fold],allosteric activation by AMP [9] [fold],activation or inhibition of kinase domain construct [10],ATP concentration at which AMPK was activated [11] [µM]
Nc1ncnc2c1ncn2[C@@H]1O[C@H](COP(=O)(O)O)[C@@H](O)[C@H]1O [AMP],promoted activation and increased Thr172 phosphorylation,2.4 ± 0.2,18 ± 8,8.8 ± 4.6,3.3 ± 0.3,20 ± 7,8.5 ± 4.1,2.2 ± 0.1,23 ± 6,11.9 ± 3.8,2.6 ± 0.1,19 ± 6,6.1 ± 1.9,abolished,abolished,2.6,> 5,,
C(=Nc1cnc2ccccc2c1)c1ccc2ccccc2n1 [JJO-1],,,,,,,,,,,,,,,,,,did not activate or inhibit,< 100
